# Key:
# HUVEC = HUVEC cell branching assay on Matrigel; type: cell-based, human; conditions: 0-40 μM, 18-20 hours, p<0.05
# Protocol: HUVEC cell branching assays. For branching assays, 350 μL of Matrigel was loaded into each well of a 24-well plate on ice and incubate the plate for 30 minutes at 37° C. to allow the Matrigel to solidify. 80,000 HUVECs in 0.5 mL of EGM-2 medium with the indicated AGX concentration was plated on the solidified Matrigel. At 18-20 hours of incubation when the tube formation was peaked, media from the well was carefully removed and fixed with 10% buffered formalin for 15 minutes. Each well was washed with DPBS. The morphology of capillary like structures was visualized using an inverted microscope and photographed with a digital camera at 10× magnification. To quantify the tube network, Image J with the Angiogenesis Analyzer plugin (public domain Java-based image-processing program, reference: Carpentier G. ImageJ contribution: Angiogenesis Analyzer. ImageJ News. 2012) was installed and the analysis for the number of nodes, junctions, meshes and total branching length was performed as per the instruction. The statistical data analyses were performed using the Wilcoxon test.
# [1] = tested on: retinal neovascularization; assay: Retinopathy of prematurity (ROP) model; type: in vivo, mouse; conditions: intraocular injection 10 μg at P12, assessed P17, p<0.01
# Protocol: In the ROP experiment 26 C57BL/6 pups, 36 Id^−/− and 22 Id3^−/− pups were place in 75% O2 at P7. On P12 the mice were returned to room air and at P17 they were euthanized and retinal neovascularization was measured as described above. In the AGX51 ROP experiment, C57BL/6 pups were place in 75% O2 at P7. On P12 the mice were returned to room air and injected in the eye with 10 μg AGX51 or DMSO in the FE (N=15 mice/group). On P17 they were euthanized and retinal neovascularization was measured as described above. Retinal neovascularization pathology can also be studied in mouse models of retinopathy of prematurity (ROP). In this model, post-natal day (P) 7 mice are placed in a 75% O2 chamber, which causes retinal capillary depletion. At P12, the mice are returned to room air, which leads to the development of retinal ischemia and proliferative vascular disease in the retinal vasculature. When this model was applied to Id1 or Id3 knockout mice, a significant decrease in retinal neovascularization was observed (p<0.0001) compared to wild type mice (FIG. 1C).
# T47-D = assay: MTT assay, T47-D; type: cell-based; conditions: ER +ve cell line, 24 hours
# Text: The 4T1 murine mammary tumor cell line and nine breast cancer cell lines representing the major breast cancer subtypes (ER+, HER2+, and TNBC) including MDA-MB-157, MDA-MB-436, MDA-MB-231, MDA-MB-453, MDA-MB-361, BT-474, SK-BR-3, MCF-7 and T47-D will be grown in RPMI or DMEM (Dulbecco's Modified Eagle Medium) media supplemented with 10% FBS (fetal bovine serum), 1% penicillin-streptomycin and 1% L-Glutamine. Patient derived xenograft cell lines BR7, BR11, and IBT will be established directly from breast cancer bone metastases specimens surgically resected from patients with informed consent. BR7 and BR11 specimens will be obtained from ER positive (HER2 negative and PR negative) metastatic breast cancer patients, while the IBT specimen will be obtained from a metastatic, triple negative breast cancer patient. Fresh tumor tissues will be quickly washed with ice cold PBS and minced into about 1-3 mm pieces in MEM medium (without FBS) using sterile razor blades. […] The cells will be treated with either 100 μM DMSO, AGX51, or a compound of the present technology such as AGX-A. The cell morphology and growth will be monitored daily for 1 week by microscopy for changes in morphology or cell death. […] Absorbance will then measured at 570 nm using a plate reader (Synergy 2, BioTek). […]
compound,measurement,setting,value
"CCC(=O)N(CCC(c1ccc2c(c1)OCO2)c1ccccc1OC)Cc1ccccc1 (racemic) [AGX51, N-(3-(benzo[d][1,3]dioxol-5-yl)-3-(2-methoxyphenyl)propyl)-N-benzylpropionamide]","vascular branching (nodes, junctions, meshes, branch length)",HUVEC,significantly impaired in a dose-dependent manner
same,retinal neovascularization,[1],significantly reduced retinal neovascularization
same,percentage at 60 μM (IC50 NA),T47-D,NA (60 μM = 65%)

# — patent publication US20220356163A1, “SMALL MOLECULE INHIBITORS OF Id PROTEINS” (MEMORIAL SLOAN KETTERING CANCER CENTER, priority 2019, published 2022)
